Data on 3 compounds can be found in publication PMC7754785 (ACS Omega, 2020).

For orientation: Kd means the free concentration of one partner at which half of the binding sites on the other are occupied at equilibrium, for simple one-to-one binding. High values mean lower affinity, low ones higher affinity. As a reminder, the IC50 is the concentration that inhibits the measured activity by half. A low value points to higher potency.

Where “and” joins values, the source holds several entries; their conditions need not be identical. Equal entries are not always repeated.

One test deals with Mpro from SARS CoV-2 (Severe acute respiratory syndrome coronavirus 2, UniProt P0DTD1). The test is described as follows: Surface plasmon resonance binding to immobilized Mpro. Particulars: dissociation constant KD, SPR, Mpro immobilized on CM-5 chip; KD = koff/kon. On the technique in general: Surface plasmon resonance follows binding to a sensor surface in real time, without labels.

The target of test [1] is T1, Mpro (Severe acute respiratory syndrome coronavirus 2, UniProt P0DTD1). Briefly: Universal protease activity assay with casein as substrate. It counts as biochemical, SARS-CoV-2. Particulars: IC50, 10 μM Mpro, 150 μM casein, phosphate buffer pH 7.5, 37 °C.
In test [2] the target is T1, Mpro. To be noted: previous computational studies in our lab; cited from earlier work.
Test [3] has as its target T1, Mpro. Particulars: previous computational studies in our lab; cited from earlier work. The source holds these as a separate data set.

In the case of `Nc1ccn([C@H]2C[C@H](O)[C@@H](COP(=O)(O)OP(=O)(O)OP(=O)(O)OP(=O)(O)OC[C@H]3O[C@@H](n4ccc(=O)[nH]c4=O)[C@H](O)[C@@H]3O)O2)c(=O)n1` [DB04983, Denufosol], the Kd at Mpro from SARS CoV-2 is 1400 µM and 1440 µM. Further, at Mpro [1], the IC50 was determined as 1300 µM.
With `CSCCNc1nc(SCCC(F)(F)F)nc2c1ncn2[C@@H]1O[C@H](COP(=O)(O)OP(=O)(O)C(Cl)(Cl)P(=O)(O)O)[C@@H](O)[C@H]1O` [cangrelor], the Kd at Mpro from SARS CoV-2 was 700 µM and 640 µM. Further, at Mpro [1], the IC50 came out at 900 µM. Also, the docking score on Mpro [2] is -12.28 kcal/mol.
Turning to `CC(C)c1nc(CN(C)C(=O)N[C@@H](CCN2CCOCC2)C(=O)N[C@H](CC[C@H](Cc2ccccc2)NC(=O)OCc2cncs2)Cc2ccccc2)cs1` [cobicistat], on Mpro from SARS CoV-2, the Kd was ~2.1 µM and 2.1 µM. Further, the IC50 against Mpro [1] was approximately 6.7 µM. Also, the docking score on Mpro [2] is -12.31 kcal/mol. Also, the “MM-PBSA binding free energy” value on Mpro [3] is -11.41 kcal/mol.
